Data published in patent US20120035531A1, “ON-DEMAND AND REVERSIBLE DRUG RELEASE BY EXTERNAL CUE” (PRESIDENT AND FELLOWS OF HARVARD COLLEGE, priority 2009, published 2012).

How the values were obtained:
[1] = In vitro release of encapsulated Mitoxantrone from alginate hydrogel with ultrasound; format: physicochemical
Method: Alginate hydrogels containing 0.825 mg/mL of Mitoxantrone were prepared by mixing alginate aqueous solution with slurries of CaSO4, to a final concentration of 50 mM Ca^2+ and 2% alginate (w/w) polymer. The gel was cast between two glass slides and cut into discs of approximately 10 mm diameter and 2 mm thickness. Thereafter, hydrogels were swollen overnight in the commercially available Dulbecco's Modified Eagle's Medium (DMEM). Hydrogel disks so prepared were next placed in a 15 mL plastic tube with 5 ml of DMEM. One group of the sample hydrogels were subjected to low-frequency ultrasound with frequency of 20 KHz and intensity of 1 watt for 5 min per hour. A further group comprising control hydrogels, similarly prepared, were not subjected to any stimulation. FIGS. 1A and 1B show the power profiles of ultrasound on the two groups of hydrogels.

MCF7 breast cancer cells = test: Bioactivity of ultrasound-released Mitoxantrone: MCF7 cell viability; format: cell-based; conditions: 24 hours, ultrasound-released vs fresh Mitoxantrone solution 0.1 to 20 μg/mL
Method: The bioactivity of the released Mitoxantrone in example 1 was studied by incubating MCF7 breast cancer cells in the Mitoxantrone solution, and measuring the cell viability after 24 hours. Fresh Mitoxantrone solutions (unmixed with polymer) with various concentrations ranging from 0.1 to 20 μg/mL were also used to incubate the same number of MCF7 breast cancer cells.

For `O=C1c2c(O)ccc(O)c2C(=O)c2c(NCCNCCO)ccc(NCCNCCO)c21` [Mitoxantrone], the “level of enhanced release rates across ultrasound pulses” value ([1]; 20 KHz, 1 watt, 5 min per hour) was “all on the same level”, the “increase of cumulative release amount” value ([1]; 5 min of ultrasound per hour, 20 KHz, 1 watt, vs control hydrogels) was about 70% and the “increase of release rates by ultrasound stimulation” value ([1]; alginate hydrogel 0.825 mg/mL Mitoxantrone in DMEM, 20 KHz, 1 watt, 5 min per hour, vs no stimulation) was “approximately 10 times”. For the same compound, the “rate of release after removing the ultrasound” value ([1]; alginate hydrogel in DMEM) was “decayed to negligible levels” and the cell viability (MCF7 breast cancer cells) was “reduces cell viability by the same amount as a fresh Mitoxantrone solution of equivalent concentration”.
